The test deals with T1, Amylin 3(a) receptor (human calcitonin receptor (CTa) and RAMP-3) (Homo sapiens, UniProt O60896+P30988).
T1 construct: expressed in transfected cells; host or cells: BHK570 cells, stably transfected with a CRE-luciferase reporter
Put plainly: Luciferase assay (III), BHK Amylin 3(a)//CRE-luc cells. It counts as cell-based. The note with it: BHK cells with Amylin 3(a) receptor and CRE luciferase reporter, 4 hours incubation; read-out: Potency Luciferase. An outline of the steps: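 Read-out is CRE-driven luciferase luminescence, taken 30 min after LucLite addition at room temperature. Compounds were incubated 4 h at 37° C in assay medium (10% FBS, 10 mM Hepes, pH 7,4). The cell line is BHK570 co-transfected with human calcitonin receptor CTa and RAMP-3, seeded overnight before use.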
Background: In a reporter assay the amount or activity of a reporter protein is the signal.

pEC50: −log10 of the molar value. *1 amine or outer side, *2 acyl side, *3 side chain or, on linkers, in order; H or OH if unused. Where a SMILES comes first, the peptide text is derived from it. Bridges are numbered along the chain shown (N, C = ends). Side-chain parts run from the residue outwards. The star is where a group is joined. C20 diacid = O=C(O)CCCCCCCCCCCCCCCCCCC(=O)*; γGlu = O=C(O)[C@H](CCC(=O)[*:2])N[*:1]; AEEA = NCCOCCOCC(=O)O; GABA = NCCCC(=O)O

T1 sequence (O60896 24-148): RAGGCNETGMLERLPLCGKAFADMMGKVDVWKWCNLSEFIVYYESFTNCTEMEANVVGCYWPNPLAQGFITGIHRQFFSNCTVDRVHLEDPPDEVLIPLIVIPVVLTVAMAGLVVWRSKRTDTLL
T1 sequence (P30988 25-474): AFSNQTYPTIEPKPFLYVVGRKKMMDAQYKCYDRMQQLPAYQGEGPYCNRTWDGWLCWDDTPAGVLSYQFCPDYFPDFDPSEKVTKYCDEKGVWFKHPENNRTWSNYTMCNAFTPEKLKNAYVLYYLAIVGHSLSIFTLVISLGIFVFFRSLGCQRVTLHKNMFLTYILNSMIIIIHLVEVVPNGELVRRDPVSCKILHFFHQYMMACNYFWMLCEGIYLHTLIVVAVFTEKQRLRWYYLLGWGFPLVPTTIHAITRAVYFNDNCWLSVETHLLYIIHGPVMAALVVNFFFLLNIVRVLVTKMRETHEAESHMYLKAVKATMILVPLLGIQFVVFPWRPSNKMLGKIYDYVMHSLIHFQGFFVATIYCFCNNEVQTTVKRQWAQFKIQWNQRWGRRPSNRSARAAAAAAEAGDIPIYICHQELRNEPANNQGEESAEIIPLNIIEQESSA

For the compound `CC[C@H](C)[C@H](NC(=O)[C@@H]1CCCN1C(=O)CNC(=O)[C@H](Cc1ccccc1)NC(=O)[C@H](CC(N)=O)NC(=O)[C@H](CC(N)=O)NC(=O)[C@H](CO)NC(=O)[C@H](CO)NC(=O)[C@H](Cc1c[nH]cn1)NC(=O)[C@@H]1CCCN1C(=O)[C@H](CC(C)C)NC(=O)[C@H](Cc1ccccc1)NC(=O)[C@H](CC(N)=O)NC(=O)[C@H](C)NC(=O)[C@H](CC(C)C)NC(=O)[C@H](CCCNC(=N)N)NC(=O)[C@H](CCC(N)=O)NC(=O)[C@@H](NC(=O)[C@H](C)NC(=O)[C@@H]1CSSC[C@H](NC(=O)CC[C@H](NC(=O)CCCCCCCCCCCCCCCCCCC(=O)O)C(=O)O)C(=O)N[C@@H](CC(N)=O)C(=O)N[C@@H]([C@@H](C)O)C(=O)N[C@@H](C)C(=O)N[C@@H]([C@@H](C)O)C(=O)N1)[C@@H](C)O)C(=O)N[C@@H](CC(C)C)C(=O)N1CCC[C@H]1C(=O)N1CCC[C@H]1C(=O)N[C@H](C(=O)N[C@@H](CC(N)=O)C(=O)N[C@H](C(=O)NCC(=O)N[C@@H](CO)C(=O)N[C@@H](CC(N)=O)C(=O)N[C@H](C(=O)N[C@@H](Cc1ccc(O)cc1)C(N)=O)[C@@H](C)O)C(C)C)[C@@H](C)O` [Example 15, N-alpha-[(S)-4-Carboxy-4-(19-carboxynonadecanoylamino)butyryl]-[Pro17]-pramlintide (2-37)] ({C20 diacid-γGlu}-CNTATCATQRLANFLPHSSNNFGPILPPTNVGSNTY-NH2; disulfide 1-6), the pEC50 is 8.10. For `CC[C@H](C)[C@H](NC(=O)[C@@H]1CCCN1C(=O)CNC(=O)[C@H](Cc1ccccc1)NC(=O)[C@H](CC(N)=O)NC(=O)[C@H](CC(N)=O)NC(=O)[C@H](CO)NC(=O)[C@H](CO)NC(=O)[C@H](Cc1c[nH]cn1)NC(=O)[C@@H]1CCCN1C(=O)[C@H](CC(C)C)NC(=O)[C@H](Cc1ccccc1)NC(=O)[C@H](CC(N)=O)NC(=O)[C@H](C)NC(=O)[C@H](CC(C)C)NC(=O)[C@H](CCCNC(=N)N)NC(=O)[C@H](CCC(N)=O)NC(=O)[C@@H](NC(=O)[C@H](C)NC(=O)[C@@H]1CSSC[C@H](NC(=O)[C@H](CCCCN)NC(=O)[C@H](CCCNC(=N)N)NC(=O)CC[C@H](NC(=O)CCCCCCCCCCCCCCCCCCC(=O)O)C(=O)O)C(=O)N[C@@H](CC(N)=O)C(=O)N[C@@H]([C@@H](C)O)C(=O)N[C@@H](C)C(=O)N[C@@H]([C@@H](C)O)C(=O)N1)[C@@H](C)O)C(=O)N[C@@H](CC(C)C)C(=O)N1CCC[C@H]1C(=O)N1CCC[C@H]1C(=O)N[C@H](C(=O)N[C@@H](CC(N)=O)C(=O)N[C@H](C(=O)NCC(=O)N[C@@H](CO)C(=O)N[C@@H](CC(N)=O)C(=O)N[C@H](C(=O)N[C@@H](Cc1ccc(O)cc1)C(N)=O)[C@@H](C)O)C(C)C)[C@@H](C)O` [Example 21, N-alpha-[(S)-4-Carboxy-4-(19-carboxynonadecanoylamino)butyryl]-Arg-[Pro17]-pramlintide] ({C20 diacid-γGlu}-RKCNTATCATQRLANFLPHSSNNFGPILPPTNVGSNTY-NH2; disulfide 3-8) the value was 8.70; for `CC[C@H](C)[C@H](NC(=O)[C@@H]1CCCN1C(=O)CNC(=O)[C@H](Cc1ccccc1)NC(=O)[C@H](CC(N)=O)NC(=O)[C@H](CC(=O)O)NC(=O)[C@H](CO)NC(=O)[C@H](CO)NC(=O)[C@H](Cc1c[nH]cn1)NC(=O)[C@H](Cc1c[nH]cn1)NC(=O)[C@H](CC(C)C)NC(=O)[C@H](Cc1ccccc1)NC(=O)[C@H](CC(N)=O)NC(=O)[C@H](C)NC(=O)[C@H](CC(C)C)NC(=O)[C@H](CCCNC(=N)N)NC(=O)[C@H](CCC(N)=O)NC(=O)[C@@H](NC(=O)[C@H](C)NC(=O)[C@@H]1CSSC[C@H](NC(=O)[C@@H](N)CCCCN)C(=O)N[C@@H](CCCCNC(=O)[C@H](CCC(=O)O)NC(=O)[C@H](CCCNC(=N)N)NC(=O)[C@H](CCC(=O)O)NC(=O)[C@H](CCC(=O)O)NC(=O)CCCCCCCCCCCCCCCCCCC(=O)O)C(=O)N[C@@H]([C@@H](C)O)C(=O)N[C@@H](C)C(=O)N[C@@H]([C@@H](C)O)C(=O)N1)[C@@H](C)O)C(=O)N[C@@H](CC(C)C)C(=O)N1CCC[C@H]1C(=O)N1CCC[C@H]1C(=O)N[C@H](C(=O)N[C@@H](CC(N)=O)C(=O)N[C@H](C(=O)NCC(=O)N[C@@H](CO)C(=O)N[C@@H](CC(N)=O)C(=O)N[C@H](C(=O)N[C@@H](Cc1ccc(O)cc1)C(N)=O)[C@@H](C)O)C(C)C)[C@@H](C)O` [Example 2, N-epsilon3-(19-carboxynonadecanoyl-Glu-Glu-Arg-Glu)-[Lys3,His17,Asp21]-pramlintide] (H-KCK([Glu-Arg-Glu-Glu-C20 diacid])TATCATQRLANFLHHSSDNFGPILPPTNVGSNTY-NH2; disulfide 2-7), 9.05.

Consider `CC[C@H](C)[C@H](NC(=O)[C@@H]1CCCN1C(=O)CNC(=O)[C@H](Cc1ccccc1)NC(=O)[C@H](CC(N)=O)NC(=O)[C@H](CC(N)=O)NC(=O)[C@H](CO)NC(=O)[C@H](CO)NC(=O)[C@H](Cc1c[nH]cn1)NC(=O)[C@H](Cc1c[nH]cn1)NC(=O)[C@H](CC(C)C)NC(=O)[C@H](Cc1ccccc1)NC(=O)[C@H](CC(N)=O)NC(=O)[C@H](C)NC(=O)[C@H](CC(C)C)NC(=O)[C@H](CCCNC(=N)N)NC(=O)[C@H](CCC(N)=O)NC(=O)[C@@H](NC(=O)[C@H](C)NC(=O)[C@@H]1CSSC[C@H](NC(=O)CCCNC(=O)CCCCCCCCCCCCCCCCCCC(=O)O)C(=O)N[C@@H](CC(N)=O)C(=O)N[C@@H]([C@@H](C)O)C(=O)N[C@@H](C)C(=O)N[C@@H]([C@@H](C)O)C(=O)N1)[C@@H](C)O)C(=O)N[C@@H](CC(C)C)C(=O)N1CCC[C@H]1C(=O)N1CCC[C@H]1C(=O)N[C@H](C(=O)N[C@@H](CC(N)=O)C(=O)N[C@H](C(=O)NCC(=O)N[C@@H](CO)C(=O)N[C@@H](CC(N)=O)C(=O)N[C@H](C(=O)N[C@@H](Cc1ccc(O)cc1)C(N)=O)[C@@H](C)O)C(C)C)[C@@H](C)O` [Example 30, N-alpha-[4-(19-Carboxynonadecanoylamino)butyryl]-[His17]-pramlintide (2-37)] ({C20 diacid-GABA}-CNTATCATQRLANFLHHSSNNFGPILPPTNVGSNTY-NH2; disulfide 1-6), for which the pEC50 is 10.22. For the compound `CC[C@H](C)[C@H](NC(=O)[C@@H]1CCCN1C(=O)CNC(=O)[C@H](Cc1ccccc1)NC(=O)[C@H](CC(N)=O)NC(=O)[C@H](CC(N)=O)NC(=O)[C@H](CO)NC(=O)[C@H](CO)NC(=O)[C@H](Cc1c[nH]cn1)NC(=O)[C@H](CCCNC(=N)N)NC(=O)[C@H](CC(C)C)NC(=O)[C@H](Cc1ccccc1)NC(=O)[C@H](CC(N)=O)NC(=O)[C@H](C)NC(=O)[C@H](CC(C)C)NC(=O)[C@H](CCCNC(=N)N)NC(=O)[C@H](CCC(N)=O)NC(=O)[C@@H](NC(=O)[C@H](C)NC(=O)[C@@H]1CSSC[C@H](NC(=O)CC[C@H](NC(=O)CCCCCCCCCCCCCCCCCCC(=O)O)C(=O)O)C(=O)N[C@@H](CC(N)=O)C(=O)N[C@@H]([C@@H](C)O)C(=O)N[C@@H](C)C(=O)N[C@@H]([C@@H](C)O)C(=O)N1)[C@@H](C)O)C(=O)N[C@@H](CC(C)C)C(=O)N1CCC[C@H]1C(=O)N1CCC[C@H]1C(=O)N[C@H](C(=O)N[C@@H](CC(N)=O)C(=O)N[C@H](C(=O)NCC(=O)N[C@@H](CO)C(=O)N[C@@H](CC(N)=O)C(=O)N[C@H](C(=O)N[C@@H](Cc1ccc(O)cc1)C(N)=O)[C@@H](C)O)C(C)C)[C@@H](C)O` [Example 14, N-alpha-[(S)-4-Carboxy-4-(19-carboxynonadecanoylamino)butyryl]-[Arg17]-pramlintide (2-37)] ({C20 diacid-γGlu}-CNTATCATQRLANFLRHSSNNFGPILPPTNVGSNTY-NH2; disulfide 1-6), the pEC50 is 9.70. `CC[C@H](C)[C@H](NC(=O)[C@@H]1CCCN1C(=O)CNC(=O)[C@H](Cc1ccccc1)NC(=O)[C@H](CC(N)=O)NC(=O)[C@H](CC(N)=O)NC(=O)[C@H](CO)NC(=O)[C@H](CO)NC(=O)[C@H](Cc1c[nH]cn1)NC(=O)[C@H](CCCNC(=N)N)NC(=O)[C@H](CC(C)C)NC(=O)[C@H](Cc1ccccc1)NC(=O)[C@H](CC(N)=O)NC(=O)[C@H](C)NC(=O)[C@H](CC(C)C)NC(=O)[C@H](CCCNC(=N)N)NC(=O)[C@H](CCC(N)=O)NC(=O)[C@@H](NC(=O)[C@H](C)NC(=O)[C@@H]1CSSC[C@H](NC(=O)[C@H](Cc2c[nH]cn2)NC(=O)[C@H](Cc2c[nH]cn2)NC(=O)COCCOCCNC(=O)CC[C@H](NC(=O)CCCCCCCCCCCCCCCCCCC(=O)O)C(=O)O)C(=O)N[C@@H](CC(N)=O)C(=O)N[C@@H]([C@@H](C)O)C(=O)N[C@@H](C)C(=O)N[C@@H]([C@@H](C)O)C(=O)N1)[C@@H](C)O)C(=O)N[C@@H](CC(C)C)C(=O)N1CCC[C@H]1C(=O)N1CCC[C@H]1C(=O)N[C@H](C(=O)N[C@@H](CC(N)=O)C(=O)N[C@H](C(=O)NCC(=O)N[C@@H](CO)C(=O)N[C@@H](CC(N)=O)C(=O)N[C@H](C(=O)N[C@@H](Cc1ccc(O)cc1)C(N)=O)[C@@H](C)O)C(C)C)[C@@H](C)O` [Example 34, N-alpha-[2-(2-{2-[4-(S)-Carboxy-4-(19-carboxynonadecanoylamino)butyrylamino]ethoxy}ethoxy)acetyl]-His-[His1,Arg17]-pramlintide] ({C20 diacid-γGlu-AEEA}-HHCNTATCATQRLANFLRHSSNNFGPILPPTNVGSNTY-NH2; disulfide 3-8): the pEC50 is 9.70.
